In paper PMC9791135, “A penetratin-derived peptide reduces the membrane permeabilization and cell toxicity of α-synuclein oligomers” (The Journal of Biological Chemistry, 2022):
Where a SMILES comes first, the peptide text is derived from it.

Legend:
α-syn [1] = settings: cited from earlier work
Source text: Cell-penetrating peptides (CPPs) ([57]) are defined as a short relatively nontoxic and partly hydrophobic and/or polybasic peptides ([…] 5–35 amino acid residues), with a net positive charge at physiological pH. CPPs have the ability of interacting with negatively charged groups on the cellular membrane, which results in their internalization ([58], [59]) but can also cotransport a variety of cargoes inside the cells ([58], [60], [61], [62]). Cationic CPPs are able to translocate across membranes in a nonendocytotic fashion, generally by one of following mechanisms: the inverted micelle mo ...

[2] = vesicles formed by DOPG and other negatively charged lipids; cited from earlier work
Procedure: Penetratin forms β-structures on vesicles formed by DOPG and other negatively charged lipids (at concentrations >10^−3 mg/ml), leading to membrane perturbation ...

SH-SY5Y cells [3] = assay: MTT cell viability assay, substance alone
Procedure: (§1) The effect of the peptides on αSOs toxicity in SH-SY5Y cells using 3-(4, 5-dimethylthiazol-2-yl)-2,5-diphenyltetrazolium bromide (MTT) cell viability assay was also tested to complement our calcein data.
(§2) We used the MTT assay to measure cell viability after 24 h treatment with αSOs in the presence of peptides. SH-SY5Y cells were seeded in 96-well plates at a density of 5 × 10^4 cell/ml in Dulbecco's modified Eagle's medium supplemented with 10% FBS, 100 unit/ml penicillin, and […]. The cells were incubated in a humidified atmosphere incubator with 5% CO2 and 95% humidity at 37 °C for 24 h. The culture medium was then replaced with fresh medium containing 10 μM αSOs with peptides and incubated for another 24 h. Then the cell medium was replaced with a fresh medium containing 20% MTT (5 mg/ml), and the cells were incubated for an additional 4 h at 37 °C. Then 100 μl of dimethyl sulfoxide was added to dissolve formazan crystals by incubating for 30 min on a shaker at RT. Consequently, absorbance was measured by using a plate reader at 570 nm.

SH-SY5Y cells [4] = settings: 10 μM αSOs (0.14 μg/ml) with 35 μg/ml peptide, 24 h, MTT
Procedure: as §1, §2

α-syn [5] = molecular target: T1, α-syn (Homo sapiens, UniProt P37840); assay: Microfluidic diffusional sizing binding affinity (Fluidity One-W), α-syn monomer; settings: 60 μM labeled p216, 0–400 μM α-syn monomer, MilliQ water, 15 min in the dark; 1:1 binding fit of Rh; read-out: Dissociation binding constant (Kd) for α-syn
T1 construct: made in house; host or cells: Escherichia coli BL21 (DE3), plasmid pET11-D
Procedure: (§3) To determine an actual binding affinity of p216 to αSOs and α-syn, the hydrodynamic radius (Rh) of labeled p216 bound to unlabeled αSOs–α-syn was determined by microfluidic diffusional sizing ([72]). […] Rather, a direct and easily interpretable parameter is provided in the form of the Rh. […] For both species, binding of peptide led to a significant increase in Rh, confirming peptide immobilization in complex with these states. The measured values of ca. 5 and 11 nm for α-syn and αSO, respectively, agree nicely with the known Rh of α-syn ([73]) (4 nm) and αSO (10 nm) ([74]).
(§4) Peptides were labeled with fluidiphore rapid amine 503 (Fluidic Analytics Limited), an amine-reactive fluorescent label whose absorbance shifts from 612 nm (free) to 503 nm when conjugated. About 1 mg dry fluidiphore dye was dissolved in 100 μl acetonitrile and stored at −20 °C. The peptide stock solutions were diluted into labeling buffer (0.1 M NaHCO3, pH 8.3) to a final concentration of 1 mg/ml (100 μl) and mixed with 3 μl of dye solution (final dye concentration of […]) and incubated for 30 min at RT. […]
(§5) Fluidity One-W (Fluidic Analytics Limited) ([101]) was used to measure the binding affinity and Rh of peptides bound to α-syn monomers and oligomers. We determined the lowest concentration of labeled peptides that could be detected by the instrument to be 60 μM. […]

αSOs = molecular target: T2, αSOs (Homo sapiens, UniProt P37840); assay: Calcein release assay, αSOs together with peptides; assay type: biochemical
T2 construct: made in house; host or cells: Escherichia coli BL21 (DE3); oligomers formed by shaking the monomer and isolated by SEC (Superose 6)
Procedure: αSOs show cytotoxic properties, which have been attributed to their membrane-disrupting ability ([69]). To examine the effect of peptides on membrane permeabilization by αSOs, we used a simple calcein release assay. αSOs, peptides, and aSO–peptide mixtures at 10^−6 to 10^−1 mg/ml peptide were added to calcein-loaded DOPG vesicle, and the extent of calcein release was monitored for 30 min by the increase in fluorescence as calcein leaks out upon membrane permeabilization, leading to dilution and the loss of self-quenching. The time-dependent calcein release data from DOPG vesicles ([70], [71]) in the presence of peptides, αSOs, and αSO–peptides are shown in Figs. S9 and S10. In order to allow easy comparison of all peptides, the calcein release versus concentration (peptides and αSOs) were plotted at the plateau point of release (Fig. 5, A–C). […] Figure 5D compares calcein release percentages of data represented in Figure 5, A and B at peptide concentrations between 0.001 and 0.1 mg/ml, where we see the largest extent of calcein release in general.
Calcein-filled vesicles of DOPG were prepared as described before ([38]). Briefly, DOPG was dissolved in PBS to […], in the presence of calcein at self-quenching concentrations (70 mM) and subjected to 10 freeze–thaw cycles between liquid nitrogen and a 50 °C water bath. After 21 times extrusion through a 100 nm filter, free calcein was separated from vesicles with a PD-10 desalting column (GE Healthcare). Vesicles were stored at 4 °C and used for calcein release assays within 24 h.
Calcein release was measured by mixing peptides and/or αSOs at a final concentration of 10^−6 to 10^−1 mg/ml and 5.2 μg/ml, respectively, in 148 μl with 2 μl of calcein vesicles, and were then loaded onto a 96-well plate (Nunc, Thermo Fischer Scientific) in triplicate. The plate was sealed with Crystal clear sealing tape (Hampton Research), and fluorescence was measured (excitation: 485 nm and emission: 520 nm) for 1 h at 37 °C every 2 min with a 2 s autoshake before each reading on a fluorescence plate reader (Tecan). Finally, 2 μl Triton X-100 (0.2% [v/v]) was added to lyse vesicles, and the maximal fluorescence signal was measured for 20 min under the same reading condition. Background fluorescence was subtracted, and the average signal of calcein release before addition of Triton X-100 (F), after treatment with Triton X-100 (Ft) and for the buffer control (F0) were determined, and calcein release percentage was calculated as follow (Equation 1):(1) CalceinRelease%(CR%)=(F−F0)/(Ft−F0)

αSO = molecular target: T3, αSO (Homo sapiens, UniProt P37840); assay: Microfluidic diffusional sizing binding affinity (Fluidity One-W), αSO; settings: 60 μM labeled p216, 0–84 μM αSO, MilliQ water, 15 min in the dark; 1:1 binding fit of Rh; read-out: Dissociation binding constant (Kd) for αSO
T3 construct: made in house; host or cells: Escherichia coli BL21 (DE3); oligomers formed by shaking the monomer and isolated by SEC (Superose 6)
Procedure: as §3, §4, §5

Compound	Effect on fibrillation of α-syn (α-syn [1])	Concentration at which β-structures form on vesicles, leading to membrane perturbation and permeabilization [2]	Cell viability (MTT) (SH-SY5Y cells [3]; SH-SY5Y cells, 35 μg/ml peptide alone, 24 h)	Toxicity to SH-SY5Y cells, in words (SH-SY5Y cells [3]; peptide alone, MTT)	Increase of cell viability compared with αSOs alone (SH-SY5Y cells [4])	Kd (α-syn [5])	Reduction of αSO-induced membrane permeability (αSOs; calcein-filled DOPG LUVs, peptide concentration not stated at the place)	Reduction of αSOs-induced large anionic unilamellar vesicle membrane permeability (αSOs; peptide at 10^−1 to 10^−3 mg/ml)	Kd (αSO)
RQIKIWFQNRRMKWKK [Penetratin, cell-penetrating peptide from the third helix of the Antennapedia protein homeodomain]	inhibit fibrillation of α-syn	> 10^−3 mg/ml	–	–	–	–	–	–	–
CSCC[C@H](NC(=O)[C@H](CCCNC(=N)N)NC(=O)[C@H](CCCNC(=N)N)NC(=O)[C@H](CC(N)=O)NC(=O)[C@H](CCC(N)=O)NC(=O)[C@H](Cc1ccccc1)NC(=O)[C@@H](N)Cc1c[nH]c2ccccc12)C(=O)N[C@@H](CCCCN)C(=O)N[C@@H](Cc1c[nH]c2ccccc12)C(=O)N[C@@H](CCCCN)C(=O)N[C@@H](CCCCN)C(=O)O [p216] (H-WFQNRRMKWKK-OH)	–	–	92%	not toxic	about 20%	31.2 µM	100%	~100%	2.7 µM
